Reference: publication PMC3328629 (2012)
Values belong to the compound of their own block, whether it stands above or below them.

Tests used:
[1] = molecular target: T1, S-adenosyl-L-homocysteine hydrolase (HsSAHH) (Homo sapiens, UniProt P23526); assay: biochemical
T1 sequence (P23526 2-432): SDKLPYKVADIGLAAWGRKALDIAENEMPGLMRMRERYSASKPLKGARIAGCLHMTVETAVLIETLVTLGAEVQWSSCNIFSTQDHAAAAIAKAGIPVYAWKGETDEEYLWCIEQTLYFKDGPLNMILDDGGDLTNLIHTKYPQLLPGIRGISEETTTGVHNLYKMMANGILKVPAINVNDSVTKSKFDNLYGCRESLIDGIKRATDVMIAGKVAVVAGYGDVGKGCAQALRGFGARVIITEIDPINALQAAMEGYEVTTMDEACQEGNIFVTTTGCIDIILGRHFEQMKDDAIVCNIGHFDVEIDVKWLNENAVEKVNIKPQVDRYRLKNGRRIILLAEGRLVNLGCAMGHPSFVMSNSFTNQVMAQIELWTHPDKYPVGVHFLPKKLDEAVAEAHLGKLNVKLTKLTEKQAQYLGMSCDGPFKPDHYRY

[2] = molecular target: T1, S-adenosyl-L-homocysteine hydrolase (HsSAHH)
[3] = molecular target: T1, S-adenosyl-L-homocysteine hydrolase (HsSAHH); assay: luciferase-coupled adenosine assay; type: biochemical
[4] = molecular target: T1, S-adenosyl-L-homocysteine hydrolase (HsSAHH); assay: Michaelis-Menten kinetics; type: biochemical

Ki [1]: 11.3 ± 0.6 nM
Structure (SMILES): Nc1ncnc2c1ncn2C[C@@H](O)[C@@H](O)C(=O)O [D-eritadenine]

Structure (SMILES): Nc1ncnc2c1ncn2[C@@H]1C=C(CO)[C@@H](O)[C@H]1O [INH, neplanocin A]
HPLC analysis of adenosine formation without coupling enzymes [2]: Under these conditions (cf. Supplementary Methods, Supporting Information), INH totally inhibits SAHH.

Ki [3]: 2170 ± 80 nM
Structure (SMILES): NC[C@H]1O[C@@H](n2cnc3c(N)ncnc32)[C@H](O)[C@@H]1O [INH-1, 5′-deoxy-5′-amino-β-D-adenosine]

Km [4]: 22 ± 2 µM
Structure (SMILES): Nc1ncnc2c1ncn2[C@@H]1O[C@H](CSCC[C@H](N)C(=O)O)[C@@H](O)[C@H]1O [SAH, S-adenosyl-L-homocysteine]
